Entries after “also recorded” stand apart in the source; their conditions may differ.

The test system of assay [1] is GSK3, total β-catenin, phospho-CRMP2. Kind of assay: GSK3 and GSK3 substrates immunoblot in differentiated SH-SY5Y cells, 24 h. The assay is classed as cell-based, human. As to the method: HEK293 cells purchased from ATCC and MEF cells were kindly gifted by MRC PPU reagents and services at the University of Dundee. HEK293 and MEF cells were maintained in DMEM (high glucose, GlutaMAX; Gibco) containing 10% foetal bovine serum (FBS; Thermo Fisher), 100U ML-1 penicillin-streptomycin (Thermo Fisher). HAP1 wild type and HAP1 Cereblon Knock-out cell line (CRBN-KO, HZGHC003752c001, Horizon) was a gift from the Ciulli Lab. HAP1 cells were cultured in IMDM (Gibco) with the same additives described as above. SH-SY5Y human neuroblastoma cells (ATCC, CRL-2266) maintained in DMEM (high glucose, Gibco) supplemented with same additives as above. For differentiation, 5 × 10^5 cells were seeded into each well of 6 well plates and differentiated into a more neuronal-like phenotype by treating for 5 days with 10 µM retinoic acid (F9665, Sigma), changing the media every day for the first 3 days[39],[40]. […]
HEK293, HAP1, HAP1 CRBN KO and SH-SY5Y cells were plated in either 6 cm plates or 6-well plates at varying densities (0.5–0.7 × 10^6 cells per plate or wells), and MEF cells were plated in 10 cm plates (1–1.2 × 10^6 cells per plate) depending on experimental set up in respective culturing condition as described above. […] Following clearance of lysates, protein concentrations were determined by the BCA assay (Fisher Scientific, 23225) or Bradford assay (Bio-rad). […]
In general terms: In western blotting, separated proteins are transferred to a membrane and probed.

In a further assay the test system is mouse liver proteome. Kind of assay: Whole proteome analysis of liver tissue from PK/PD study. The assay is classed as in vivo, female Balb/c mice. As to conditions: 5 mg/kg i.v., 4 h; GSK3α could not be quantified.
The next assay addresses T1, GSK3β (Mus musculus, UniProt Q9WV60).
T1 construct: measured KH1 (24) levels in plasma and brain at 4 h, as well as GSK3β abundance in liver and brain; tissue Charles River Laboratories, UK; host or cells: liver and brain of female Balb/c mice
Kind of assay: KH1 (24) intravenous PK/PD study: GSK3β abundance in liver and brain (immunoblot). The assay is classed as in vivo, female Balb/c mice. As to conditions: single 5 mg/kg i.v., 4 h, listed as KH1 (24). The procedure:
A fraction of frozen brain and liver samples from control (CNT) and compound KH1 (24) treated animals were-transferred into Precellys 2 mL ceramic bead tubes containing 1 mL SDS lysis buffer (50 mM Tris-HCl pH 7.4, 150 mM NaCl, 1 mM EGTA, 270 mM sucrose, 1% (v/v) Triton-X100) supplemented with complete EDTA-free protease inhibitor cocktail (Roche) and PhosSTOP phosphatase inhibitor tablets (Roche) and placed immediately on ice. Then samples were placed in Precellys Evolution tissue homogeniser (Bertin Technologies) and tissues were lysed at 0 °C for 3 × 30 s of cycles at 6800 rpm, with 30 s pause in between cycles. Samples were centrifugated at 4 °C, 2000 × g for 60 s to get rid of bubbles and supernatant was transferred into new tubes. Lysates were cleared via centrifugation at 16,000 × g, 4 °C for 20 min. Protein concentration was determined by BCA assay (Thermo Scientific) and immunoblotting performed as previously described above. Immunoblots were quantified using ImageLab (Bio-Rad) and band intensities were normalised to loading controls; anti-GAPDH or Ponceau S staining and fold changes for protein of interest were plotted.
For the PK/PD study for KH1 (24), three female Balb/c mice were given a bolus intravenous injection at a dose level of 5 mg/kg (5 mL/kg). […] The concentration of KH1 (24) in whole blood and brain tissue was determined via UPLC-MS/MS.

T1 sequence (Q9WV60 whole entry): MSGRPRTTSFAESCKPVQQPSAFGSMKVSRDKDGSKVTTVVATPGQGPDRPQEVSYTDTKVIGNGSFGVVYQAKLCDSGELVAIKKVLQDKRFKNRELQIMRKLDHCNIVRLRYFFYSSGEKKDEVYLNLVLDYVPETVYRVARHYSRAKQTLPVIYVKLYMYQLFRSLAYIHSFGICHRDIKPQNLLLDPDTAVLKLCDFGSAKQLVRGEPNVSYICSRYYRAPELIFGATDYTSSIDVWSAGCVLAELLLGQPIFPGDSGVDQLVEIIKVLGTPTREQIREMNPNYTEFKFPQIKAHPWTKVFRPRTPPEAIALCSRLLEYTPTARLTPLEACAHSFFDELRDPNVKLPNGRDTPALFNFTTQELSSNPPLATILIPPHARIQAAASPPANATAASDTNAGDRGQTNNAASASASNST

In the case of `Cn1nc(N2CCC(=O)NC2=O)c2ccc(CN3CCN(Cc4ccc(-c5cn(-c6ccc(-c7cn8nccc(C(=O)Nc9cnccc9N9CCOCC9)c8n7)cc6)nn5)nc4)CC3)cc21` [compound 24], the phospho-CRMP2 level entry in assay [1] (concurrent with GSK3 degradation) is recorded as “concurrent reduction in phospho-CRMP2”. Also, the “dose at which β-catenin stabilisation most clear” value in assay [1] (highest tested dose) worked out at 100 nM. Also, the “proteome wide specificity in liver” value with mouse liver proteome is listed as “high levels of proteome wide specificity for GSK3β removal”. Also, on GSK3β (p < 0.0001 vs control), the “GSK3β abundance in liver” value is reported as “almost complete removal of GSK3β; also recorded: almost completely remove GSK3β”. In addition, at GSK3β (p = 0.0159 vs control), the “GSK3β abundance in brain” value is “significant degradation of GSK3β; also recorded: partial degradation”.

These data come from paper PMC12501029, “Discovery of a CNS active GSK3 degrader using orthogonally reactive linker screening” (Nature Communications, 2025).
